Experimental data published in PubChem BioAssay AID1872 (NMMLSC, 2009).
Activity calls are given as the source filed them. The rule behind the calls is not given here.

target: Regulator of G-protein signaling 4 (Homo sapiens) (UniProt P49798); experiment: small molecules altering RGS4 binding to Galphao – biochemical, bead-based flow cytometry, multiplex, dose response (AID 1872); settings: not given
Sequence (P49798 whole entry, looked up): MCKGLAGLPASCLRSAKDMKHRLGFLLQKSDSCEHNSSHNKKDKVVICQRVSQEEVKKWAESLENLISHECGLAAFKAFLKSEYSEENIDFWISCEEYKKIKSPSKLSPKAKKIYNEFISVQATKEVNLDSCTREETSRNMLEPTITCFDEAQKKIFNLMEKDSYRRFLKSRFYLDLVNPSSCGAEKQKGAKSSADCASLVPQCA

| SMILES | EC50 |
| --- | --- |
| O=c1[nH]c(=S)n(Cc2ccco2)c(O)c1C=NCc1cccs1 | > 30 µM (inactive) |
| NS(=O)(=O)c1ccc(N/N=C/c2ccc(O)c(O)c2O)c([N+](=O)[O-])c1 | 3.56 µM |
| CCOC(=O)N=Nc1c(O)n(C)c2ccccc12 | > 30 µM (inactive) |
| CCOC(=O)/C(C(=O)Nc1ccccc1Cl)=C1/NC(C)(C)Cc2ccccc21 | inactive |
| CC(C)Sc1nc2ccc(N3C(=O)C4CCCCC4C3=O)cc2s1 (configuration not stated) | > 30 µM (inactive) |
| COc1ccc(Br)cc1/C=N/Nc1cccc(C(=O)O)c1 | > 30 µM (inactive) |
| CN(C)[C@@H]1C(=O)C(C(=O)NCN2CCCC2)=C(O)[C@@]2(O)C(=O)C3=C(O)c4c(O)cccc4[C@@](C)(O)C3CC12 (some centres not stated) | 11.8 µM |
| CCOC(=O)C1=C(C)NC(C)=C(C(=O)OCCNC(=O)c2cccnc2)C1c1cccc([N+](=O)[O-])c1 (configuration not stated) | > 30 µM (inactive) |
| O=C1CCCC2=C1C(c1cccs1)n1ncnc1N2 (configuration not stated) | inactive |

same assay, conditions: measured here: Ki for RGS4-Galphao

| SMILES | Ki [µM] |
| --- | --- |
| Nc1c(C(=O)NCC2CCCO2)sc2nc3c(c(-c4ccco4)c12)CC/C3=C\c1ccco1 (configuration not stated) | 2.77 |
| O=C1C(Cl)=C(N2CCCCC2)C(=O)C(Cl)=C1c1cnc(N2CCCCC2)s1 | 1.55 |
| NS(=O)(=O)c1ccc(N/N=C/c2ccc(O)c(O)c2O)c([N+](=O)[O-])c1 | 3.03 |
| O=C1CCC(=O)N(O)CCCCCNC(=O)CCC(=O)N(O)CCCCCNC(=O)CCC(=O)N(O)CCCCCN1 | 2.2 |
| CN=c1scc(C)n1/N=C/c1ccc(O)c(O)c1O | 12 |
| COc1ccc(OC)c(CCNC(=O)Cn2sc3nc(C)cc(C)c3c2=O)c1 | 5.6 |
| O=C(OCC1O[C@@H](OC(=O)c2cc(O)c(O)c(O)c2)[C@@H](OC(=O)c2cc(O)c(O)c(O)c2)[C@@H](OC(=O)c2cc(O)c(O)c(O)c2)[C@@H]1OC(=O)c1cc(O)c(O)c(O)c1)c1cc(O)c(O)c(O)c1 (some centres not stated) | 0.38 |
| CCN(CC)S(=O)(=O)c1cccc(C(=O)N/N=C/c2ccc(O)c(O)c2O)c1 | 4.73 |
| CCC(=O)NC1=C(Cl)C(=O)C(NC(=O)CC)=C(Cl)C1=O | 4.61 |
| COC(=O)CCC(=O)Nc1sc(C)c(C)c1C(N)=O | 6.49 |
| CC1(C)OC(=O)C(=Cc2ccc(-c3ccc(S(N)(=O)=O)cc3)o2)C(=O)O1 | 8.26 |
| O=C(Cc1csc(N2CCOCC2)n1)N/N=C/c1ccc(O)c(O)c1O | 14.8 |
| O=C(O)C[C@@H]1C(=O)O[C@@H]2C(COC(=O)c3cc(O)c(O)c(O)c3)O[C@@H](OC(=O)c3cc(O)c(O)c(O)c3)[C@@H](OC(=O)c3cc(O)c(O)c4c3[C@H]1[C@H](O)C(=O)O4)[C@H]2OC(=O)c1cc(O)c(O)c(O)c1 (some centres not stated) | 0.88 |
| CC(=O)N(O)CCCCCNC(=O)CCC(=O)N(O)CCCCCNC(=O)CCC(=O)N(O)CCCCCN | 1.34 |
| CCN=c1scc(C)n1/N=C/c1ccc(O)c(O)c1O | 21.5 |
| CCNc1ccc2noc3c2c1C(=O)c1ccccc1-3 | 22.5 |
| O=C(COc1ccccc1C(=O)N/N=C\c1ccc(O)c(O)c1)N/N=C/c1ccc(O)c(O)c1 | 3.24 |
| Cc1cc(Cl)ccc1N=c1ssnc1Cl | 4.58 |
| CCC(=O)NC(c1ccc(C)cc1)c1cc([N+](=O)[O-])c2cccnc2c1O (configuration not stated) | 10.1 |
| O=C(O[C@@H]1OC2COC(=O)c3cc(O)c(O)c(O)c3-c3c(cc(O)c(O)c3O)C(=O)O[C@@H]([C@H]1O)[C@@H]2O)c1cc(O)c(O)c(O)c1 | 3.51 |
| CN(C)[C@@H]1C(=O)C(C(=O)NCN2CCCC2)=C(O)[C@@]2(O)C(=O)C3=C(O)c4c(O)cccc4[C@@](C)(O)C3CC12 (some centres not stated) | 10 |
| CN(C)c1ncc(C2=C(Cl)C(=O)C(N3CCCC3)=C(Cl)C2=O)s1 | 1.95 |
| CN1CCN(C2=C(Cl)C(=O)C(c3cnc(N4CCCCC4)s3)=C(Cl)C2=O)CC1 | 0.3 |
| O=C1OCC2OC(O)C(O)C(O)C2OC(=O)c2cc(O)c(O)c(O)c2-c2c(O)c(O)c3oc(=O)c4c(c(O)c(O)c5oc(=O)c2c3c54)-c2c1cc(O)c(O)c2O (configuration not stated) | 2.05 |
| NS(=O)(=O)c1ccc(CNC(=O)/C=C/c2ccco2)cc1 | 7.78 |
| COCCCNC(=O)c1ccc2c3c(onc13)-c1ccccc1C2=O | 2.62 |
| CCN1/C(=C/C=C/C=C/c2sc3ccccc3[n+]2CC)Sc2ccccc21 | 2.9 |
| COc1ccc(C2=CC(=O)C=CC2=O)cc1 | 19.7 |
